# Laboratory results published in patent publication US7348350B2, “Pyrazolyl biphenyl carboxamides and the use thereof for controlling undesirable microorganisms” (Bayer CropScience AG, priority 2000, dated 2008).
# Tests used:
# [1] = logP by HPLC on reversed-phase column (C 18), EEC Directive 79/831 Annex V.A8; type: physicochemical; conditions: reversed-phase HPLC column (C 18)
# Method: The logP values given in the Preparation Examples and Tables above were determined in accordance with EEC Directive 79/831 Annex V.A8 by HPLC (High Performance Liquid Chromatography) on a reversed-phase column (C 18). Temperature: 43° C.
# In the acidic range, the determination was carried out at pH 2.3 using the mobile phases 0.1% aqueous phosphoric acid and acetonitrile; linear gradient from 10% acetonitrile to 90% acetonitrile (marked ^a) in the Table).
# In the neutral range, the determination was carried out at pH 7.5 using the mobile phases 0.01 molar aqueous phosphate buffer solution and acetonitrile; linear gradient from 10% acetonitrile to 90% acetonitrile (marked ^b) in the Table).
# [2] = test system: Podosphaera leucotricha; assay: Podosphaera test (apple)/protective; type: in vivo; conditions: 240 h, protective, application rate 100 g/ha, evaluation 10 days after inoculation, read-out: % efficacy
# Method: (§1) To produce a suitable preparation of active compound, 1 part by weight of active compound is mixed with the stated amounts of solvent and emulsifier, and the concentrate is diluted with water to the desired concentration.
# (§2) To test for protective activity, young plants are sprayed with the preparation of active compound at the stated application rate. After the spray coating has dried on, the plants are inoculated with an aqueous spore suspension of the apple mildew pathogen Podosphaera leucotricha. The plants are then placed in a greenhouse at approximately 23° C. and a relative atmospheric humidity of approximately 70%.
# (§3) Evaluation is carried out 10 days after the inoculation. 0% means an efficacy which corresponds to that of the control, whereas an efficacy of 100% means that no infection is observed.
# [3] = test system: Venturia inaequalis; assay: Venturia test (apple)/protective; type: in vivo; conditions: 288 h, protective, application rate 100 g/ha, evaluation 12 days after inoculation, read-out: % efficacy
# Method: To produce a suitable preparation of active compound, 1 part by weight of active compound is mixed with the stated amount of solvent and emulsifier, and the concentrate is diluted with water to the desired concentration.
# To test for protective activity, young plants are sprayed with the preparation of active compound at the stated application rate. After the spray coating has dried on, the plants are inoculated with an aqueous conidia suspension of the apple scab pathogen Venturia inaequalis and then remain in an incubation cabin at approximately 20° C. and 100% relative atmospheric humidity for 1 day.
# The plants are then placed in a greenhouse at approximately 21° C. and a relative atmospheric humidity of approximately 90%.
# Evaluation is carried out 12 days after the inoculation. 0% means an efficacy which corresponds to that of the control, whereas an efficacy of 100% means that no infection is observed.
# [4] = test system: Sphaerotheca fuiginea; assay: Sphaerotheca test (cucumber)/protective; type: in vivo; conditions: Cucumis sativus, 240 h, protective, application rate 100 g/ha, evaluation 10 days after inoculation, read-out: % efficacy
# Method: as §1
# as §2, with “Sphaerotheca fuiginea.” for “the apple mildew pathogen Podosphaera leucotricha.”
# as §3
# [5] = test system: Puccinia recondita; assay: Puccinia test (wheat)/protective; type: in vivo; conditions: protective, application rate 250 g/ha, evaluation 10 days after inoculation
# Method: as §1
# To test for protective activity, young plants are sprayed with the preparation of active compound at the stated application rate. After the spray coating has dried on, the plants are sprayed with a conidia suspension of Puccinia recondita. The plants remain in an incubation cabin at 20° C. and 100% relative atmospheric humidity for 48 hours.
# The plants are then placed in a greenhouse at a temperature of approximately 20° C. and a relative atmospheric humidity of 80% to promote the development of rust pustules.
# as §3
# [6] = test system: Alternaria solani; assay: Alternaria test (tomato)/protective; type: in vivo; conditions: protective, application rate 750 g/ha, evaluation 7 days after inoculation
# Method: as §1
# To test for protective activity, young tomato plants are sprayed with the preparation of active compound at the stated application rate. 1 day after the treatment, the plants are inoculated with a spore suspension of Alternaria solani and then remain at 100% rel. humidity and 20° C. for 24 h. The plants then remain at 96% rel. atmospheric humidity and a temperature of 20° C.
# Evaluation is carried out 7 days after the inoculation. 0% means an efficacy which corresponds to that of the control, whereas an efficacy of 100% means that no infection is observed.
# [7] = acidic range, pH 2.3, 0.1% aqueous phosphoric acid and acetonitrile, 43° C. (marked a)
structure (smiles),measurement,setting,value
CO/N=C/c1ccc(-c2ccc(OC)cc2NC(=O)c2c(C)nn(C)c2F)cc1 [Example 32],chromatographic logP,[1]; [7],3.1
CO/N=C/c1cccc(-c2cc(C(F)(F)F)cc(Cl)c2NC(=O)c2c(C)nn(C)c2F)c1 [Example 44],chromatographic logP,[1]; [7],4.63
CO/N=C/c1ccc(-c2ccccc2NC(=O)c2c(C)nn(C)c2F)cc1Cl [Example 46],chromatographic logP,[1]; [7],3.47
same,pest or weed control at 100 g/ha,[2],100%
same,pest or weed control at 100 g/ha,[3],100%
same,pest or weed control at 100 g/ha,[4],100%
CO/N=C/c1ccc(-c2cc(Cl)cc(F)c2NC(=O)c2c(C)nn(C)c2F)cc1 [Example 35],chromatographic logP,[1]; [7],3.11
Cc1nn(C)c(F)c1C(=O)Nc1ccccc1-c1ccc(/C=N/OCc2ccccn2)cc1 [Example 17],chromatographic logP,[1]; [7],1.89
Cc1nn(C)c(F)c1C(=O)Nc1ccccc1-c1ccc(/C=N\O)cc1 [Example 53],chromatographic logP,[1]; [7],2.24
Cc1nn(C)c(F)c1C(=O)Nc1ccccc1-c1ccc(/C=N/OCc2ccccc2)cc1 [Example 13],chromatographic logP,[1]; [7],4.02
CO/N=C/c1ccc(-c2ccc(F)cc2NC(=O)c2c(C)nn(C)c2F)cc1 [Example 8],chromatographic logP,[1]; [7],3.39
same,pest or weed control at 100 g/ha,[2],98%
same,pest or weed control at 100 g/ha,[3],99%
Cc1nn(C)c(F)c1C(=O)Nc1ccccc1-c1ccc(/C=N/OCCCl)cc1 [Example 25],chromatographic logP,[1]; [7],3.38
CO/N=C/c1ccc(-c2ccccc2NC(=O)c2c(C)nn(C)c2F)c(Cl)c1 [Example 10],chromatographic logP,[1]; [7],3.26
CO/N=C/c1ccc(-c2ccccc2NC(=O)c2c(C)nn(C)c2F)cc1C [Example 47],chromatographic logP,[1]; [7],3.3
same,pest or weed control at 100 g/ha,[2],100%
same,pest or weed control at 100 g/ha,[3],100%
same,pest or weed control at 100 g/ha,[4],100%
CO/N=C/c1ccc(-c2cc(Cl)ccc2NC(=O)c2c(C)nn(C)c2F)cc1 [Example 28],chromatographic logP,[1]; [7],3.67
CO/N=C/c1ccc(-c2cc(C)c(F)cc2NC(=O)c2c(C)nn(C)c2F)cc1 [Example 34],chromatographic logP,[1]; [7],3.74
CO/N=C\c1cc(-c2ccccc2NC(=O)c2c(C)nn(C)c2F)ccc1/C=N/OC [Example 48],chromatographic logP,[1]; [7],3.25
CO/N=C/c1ccc(-c2c(C)cccc2NC(=O)c2c(C)nn(C)c2F)cc1 [Example 29],chromatographic logP,[1]; [7],3.39
same,pest or weed control at 100 g/ha,[2],94%
same,pest or weed control at 100 g/ha,[3],100%
same,pest or weed control at 100 g/ha,[4],83%
C/C(=N\OC(C)C)c1ccc(-c2ccccc2NC(=O)c2c(C)nn(C)c2F)cc1 [Example 20],pest or weed control at 100 g/ha,[2],95%
same,pest or weed control at 100 g/ha,[3],100%
same,pest or weed control at 100 g/ha,[4],77%
same,% efficacy,[5],100%
CO/N=C/c1ccc(-c2cc(F)ccc2NC(=O)c2c(C)nn(C)c2F)cc1 [Example 37],chromatographic logP,[1]; [7],3.01
same,pest or weed control at 100 g/ha,[2],100%
same,pest or weed control at 100 g/ha,[3],100%
same,pest or weed control at 100 g/ha,[4],77%
Cc1nn(C)c(F)c1C(=O)Nc1c(F)cc(F)cc1-c1ccc(/C=N/OCc2ccccn2)cc1 [Example 15],chromatographic logP,[1]; [7],1.81
CO/N=C(\C)c1cccc(-c2ccccc2NC(=O)c2c(C)nn(C)c2F)c1 [Example 7],chromatographic logP,[1]; [7],3.2
same,% efficacy,[6],100%
CO/N=C/c1ccc(-c2cc(C(F)(F)F)cc(Cl)c2NC(=O)c2c(C)nn(C)c2F)cc1 [Example 40],chromatographic logP,[1]; [7],4.63
CCO/N=C(\C)c1ccc(-c2ccccc2NC(=O)c2c(C)nn(C)c2F)cc1 [Example 22],pest or weed control at 100 g/ha,[2],99%
same,pest or weed control at 100 g/ha,[3],100%
same,pest or weed control at 100 g/ha,[4],95%
same,% efficacy,[5],100%
CO/N=C/c1ccc(-c2ccc(Cl)cc2NC(=O)c2c(C)nn(C)c2F)cc1 [Example 33],chromatographic logP,[1]; [7],3.79
Cc1nn(C)c(F)c1C(=O)Nc1c(F)cc(F)cc1-c1ccc(/C=N/OCc2cccnc2)cc1 [Example 18],chromatographic logP,[1]; [7],1.69
CO/N=C/c1ccc(-c2cc(F)c(F)cc2NC(=O)c2c(C)nn(C)c2F)cc1 [Example 36],chromatographic logP,[1]; [7],3.48
CO/N=C/c1ccc(-c2ccccc2NC(=O)c2c(C)nn(C)c2F)cc1OC [Example 27],chromatographic logP,[1]; [7],3.15
CO/N=C/c1ccc(-c2ccccc2NC(=O)c2c(C)nn(C)c2F)c(C)c1 [Example 26],chromatographic logP,[1]; [7],3.4
same,pest or weed control at 100 g/ha,[2],100%
same,pest or weed control at 100 g/ha,[3],100%
same,pest or weed control at 100 g/ha,[4],95%
same,% efficacy,[5],100%
CO/N=C/c1cccc(-c2ccccc2NC(=O)c2c(C)nn(C)c2F)c1 [Example 5],% efficacy,[6],90%
CCC(C)O/N=C(/C)c1ccc(-c2ccccc2NC(=O)c2c(C)nn(C)c2F)cc1 (stereo not shown) [Example 51],chromatographic logP,[1]; [7],4.67
Cc1nn(C)c(F)c1C(=O)Nc1ccccc1-c1ccc(/C=N/OC(C)C)cc1 [Example 23],pest or weed control at 100 g/ha,[2],100%
same,pest or weed control at 100 g/ha,[3],100%
same,pest or weed control at 100 g/ha,[4],95%
Cc1nn(C)c(F)c1C(=O)Nc1c(F)cc(F)cc1-c1ccc(/C=N/OCc2ccccc2)cc1 [Example 14],chromatographic logP,"[1]; neutral range, pH 7.5, 0.01 molar aqueous phosphate buffer and acetonitrile, 43° C. (marked b)",3.68
CO/N=C/c1ccc(-c2c(C)cccc2NC(=O)c2c(C)nn(C)c2F)cc1Cl [Example 50],chromatographic logP,[1]; [7],3.89
same,pest or weed control at 100 g/ha,[2],100%
same,pest or weed control at 100 g/ha,[3],100%
same,pest or weed control at 100 g/ha,[4],100%
CCO/N=C/c1ccc(-c2cc(F)cc(F)c2NC(=O)c2c(C)nn(C)c2F)cc1 [Example 11],chromatographic logP,[1]; [7],3.05
same,pest or weed control at 100 g/ha,[2],100%
same,pest or weed control at 100 g/ha,[3],100%
same,pest or weed control at 100 g/ha,[4],93%
"CO/N=C/c1ccc(-c2cc(F)cc(F)c2NC(=O)c2c(C)nn(C)c2F)cc1 [Example 2, N-{3,5-difluoro-4′-[(methoxyimino)methyl]-1,1′-biphenyl-2-yl}-5-fluoro-1,3-dimethyl-1H-pyrazole-4-carboxamide]",% efficacy,[6],90%
CO/N=C/c1cccc(-c2cc(OC(F)(F)F)ccc2NC(=O)c2c(C)nn(C)c2F)c1 [Example 43],chromatographic logP,[1]; [7],4.06
Cc1nn(C)c(F)c1C(=O)Nc1ccccc1-c1ccc(/C=N/OCc2cccnc2)cc1 [Example 12],chromatographic logP,[1]; [7],1.75
CO/N=C/c1ccc(-c2ccc(C)cc2NC(=O)c2c(C)nn(C)c2F)cc1 [Example 31],chromatographic logP,[1]; [7],3.34
Cc1nn(C)c(F)c1C(=O)Nc1ccccc1-c1ccc(/C=N/OCc2ccncc2)cc1 [Example 16],chromatographic logP,[1]; [7],1.72
Cc1nn(C)c(F)c1C(=O)Nc1c(F)cc(F)cc1-c1ccc(/C=N/OCc2ccncc2)cc1 [Example 19],chromatographic logP,[1]; [7],1.6
CCO/N=C/c1ccc(-c2ccccc2NC(=O)c2c(C)nn(C)c2F)cc1OC [Example 38],chromatographic logP,[1]; [7],3.58
CCCCO/N=C\c1ccc(-c2ccccc2NC(=O)c2c(C)nn(C)c2F)cc1 [Example 55],chromatographic logP,[1]; [7],4.33
CO/N=C/c1cccc(-c2ccc(Cl)cc2NC(=O)c2c(C)nn(C)c2F)c1 [Example 41],chromatographic logP,[1]; [7],3.89
CO/N=C/c1cccc(-c2ccc(C(F)(F)F)cc2NC(=O)c2c(C)nn(C)c2F)c1 [Example 42],chromatographic logP,[1]; [7],4.09
CCO/N=C/c1ccc(-c2ccccc2NC(=O)c2c(C)nn(C)c2F)c(C)c1 [Example 39],chromatographic logP,[1]; [7],3.91
same,pest or weed control at 100 g/ha,[2],100%
same,pest or weed control at 100 g/ha,[3],100%
same,pest or weed control at 100 g/ha,[4],97%
